Test system: K98450-129-R-PDC complex spheroid growth, percent test/control
Experiment: Anticancer human tumor K98450-129-R-PDC patient-derived colon adenocarcinoma cell line growth inhibition [RAS]
Conditions: for IC50: curve of first compound; for viability, T/C: stronger effect = lower value
Summary of the method: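 Agents were tested in combination matrices in half-log decrements from a top concentration at or near clinical Cmax (10 microM if undetermined). Targets were multi-cell spheroids of tumour lines plus HUVEC and MSC stromal cells.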
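Note: spheroids exposed to agents for seven days before the viability readout.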
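Throughout, for viability, T/C: luminescence used as a proxy for viable cell amount.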

With `CC(C)n1nc(-c2ccc3oc(N)nc3c2)c2c(N)ncnc21` + C#Cc1c(F)ccc2cc(O)cc(-c3ncc4c(N5CC6CCC(C5)N6)nc(OCC56CCCN5CC(F)C6)nc4c3F)c12 as the compound, how does the IC50 (second compound 0.0316 µM) read?
The IC50 was over 100 nM.

What about the IC50 (second compound 0.1 µM) of the same compound?
Its IC50 is over 100 nM.

What about the IC50 (second compound 0.316 µM) of the same compound?
The IC50 was over 100 nM.

What about the IC50 (second compound 1 µM) of the same compound?
Its IC50 is over 100 nM.

And the IC50 (second compound 3.16 µM)?
The IC50 was over 100 nM.

And the IC50 (second compound 10 µM)?
The IC50 was over 100 nM.

And the viability, T/C (second compound 0.0316 µM, first compound 0.000316 µM)?
Its viability, T/C is 110%.

What about the viability, T/C (second compound 0.0316 µM, first compound 0.001 µM) of the same compound?
The viability, T/C was 104%.

And the viability, T/C (second compound 0.0316 µM, first compound 0.00316 µM)?
Its viability, T/C is 101%.

And the viability, T/C (second compound 0.0316 µM, first compound 0.01 µM)?
The viability, T/C was 98.4%.

What about the viability, T/C (second compound 0.0316 µM, first compound 0.0316 µM) of the same compound?
The viability, T/C was 86.5%.

What about the viability, T/C (second compound 0.0316 µM, first compound 0.1 µM) of the same compound?
The viability, T/C was 78.3%.

What about the viability, T/C (second compound 0.1 µM, first compound 0.000316 µM) of the same compound?
Its viability, T/C is 114%.

And the viability, T/C (second compound 0.1 µM, first compound 0.001 µM)?
Its viability, T/C is 103%.

And the viability, T/C (second compound 0.1 µM, first compound 0.00316 µM)?
The viability, T/C was 102%.

And the viability, T/C (second compound 0.1 µM, first compound 0.01 µM)?
The viability, T/C was 95.9%.

What about the viability, T/C (second compound 0.1 µM, first compound 0.0316 µM) of the same compound?
The viability, T/C was 89.2%.

And the viability, T/C (second compound 0.1 µM, first compound 0.1 µM)?
The viability, T/C was 74.4%.

And the viability, T/C (second compound 0.316 µM, first compound 0.000316 µM)?
Its viability, T/C is 109%.

And the viability, T/C (second compound 0.316 µM, first compound 0.001 µM)?
The viability, T/C was 105%.

What about the viability, T/C (second compound 0.316 µM, first compound 0.00316 µM) of the same compound?
Its viability, T/C is 104%.

And the viability, T/C (second compound 0.316 µM, first compound 0.01 µM)?
Its viability, T/C is 98.8%.

And the viability, T/C (second compound 0.316 µM, first compound 0.0316 µM)?
The viability, T/C was 93.1%.

And the viability, T/C (second compound 0.316 µM, first compound 0.1 µM)?
The viability, T/C was 71.9%.

And the viability, T/C (second compound 1 µM, first compound 0.000316 µM)?
The viability, T/C was 106%.

What about the viability, T/C (second compound 1 µM, first compound 0.001 µM) of the same compound?
The viability, T/C was 107%.

And the viability, T/C (second compound 1 µM, first compound 0.00316 µM)?
The viability, T/C was 95.1%.

What about the viability, T/C (second compound 1 µM, first compound 0.01 µM) of the same compound?
Its viability, T/C is 93.8%.

What about the viability, T/C (second compound 1 µM, first compound 0.0316 µM) of the same compound?
Its viability, T/C is 82.9%.

What about the viability, T/C (second compound 1 µM, first compound 0.1 µM) of the same compound?
Its viability, T/C is 74.7%.

And the viability, T/C (second compound 3.16 µM, first compound 0.000316 µM)?
The viability, T/C was 95.6%.

What about the viability, T/C (second compound 3.16 µM, first compound 0.001 µM) of the same compound?
The viability, T/C was 94.8%.

And the viability, T/C (second compound 3.16 µM, first compound 0.00316 µM)?
Its viability, T/C is 92%.

What about the viability, T/C (second compound 3.16 µM, first compound 0.01 µM) of the same compound?
Its viability, T/C is 84.4%.

And the viability, T/C (second compound 3.16 µM, first compound 0.0316 µM)?
Its viability, T/C is 80.1%.

And the viability, T/C (second compound 3.16 µM, first compound 0.1 µM)?
The viability, T/C was 66.7%.

What about the viability, T/C (second compound 10 µM, first compound 0.000316 µM) of the same compound?
The viability, T/C was 84.9%.

What about the viability, T/C (second compound 10 µM, first compound 0.001 µM) of the same compound?
The viability, T/C was 82.9%.

And the viability, T/C (second compound 10 µM, first compound 0.00316 µM)?
Its viability, T/C is 87.4%.

What about the viability, T/C (second compound 10 µM, first compound 0.01 µM) of the same compound?
The viability, T/C was 77%.

And the viability, T/C (second compound 10 µM, first compound 0.0316 µM)?
The viability, T/C was 69.6%.

And the viability, T/C (second compound 10 µM, first compound 0.1 µM)?
Its viability, T/C is 62.2%.

Which results are given for `CC(C)n1nc(-c2ccc3oc(N)nc3c2)c2c(N)ncnc21` + CCn1c(-c2cccnc2C(C)OC)c2c3cc(ccc31)N1CCOC(CC(NC(=O)C(C(C)C)N(C)C(=O)C3(F)CCN(C(=O)C#CC(C)(C)N(C)C)CC3)C(=O)N3CCCC(N3)C(=O)OCC(C)(C)C2)C1?
IC50 (second compound 0.000949 µM): 46.3 nM; IC50 (second compound 0.003 µM): 2.56 nM; IC50 (second compound 0.00949 µM): 0.449 nM; IC50 (second compound 0.03 µM): < 0.316 nM; IC50 (second compound 0.0949 µM): < 0.316 nM; IC50 (second compound 0.3 µM): < 0.316 nM; viability, T/C (second compound 0.000949 µM, first compound 0.000316 µM): 58%; viability, T/C (second compound 0.000949 µM, first compound 0.001 µM): 66.9%; viability, T/C (second compound 0.000949 µM, first compound 0.00316 µM): 65.7%; viability, T/C (second compound 0.000949 µM, first compound 0.01 µM): 63.2%; viability, T/C (second compound 0.000949 µM, first compound 0.0316 µM): 50.5%; viability, T/C (second compound 0.000949 µM, first compound 0.1 µM): 41.8%; viability, T/C (second compound 0.003 µM, first compound 0.000316 µM): 58.5%; viability, T/C (second compound 0.003 µM, first compound 0.001 µM): 53.4%; viability, T/C (second compound 0.003 µM, first compound 0.00316 µM): 53%; viability, T/C (second compound 0.003 µM, first compound 0.01 µM): 38.5%; viability, T/C (second compound 0.003 µM, first compound 0.0316 µM): 40.6%; viability, T/C (second compound 0.003 µM, first compound 0.1 µM): 31.9%; viability, T/C (second compound 0.00949 µM, first compound 0.000316 µM): 52.1%; viability, T/C (second compound 0.00949 µM, first compound 0.001 µM): 46%; viability, T/C (second compound 0.00949 µM, first compound 0.00316 µM): 34.8%; viability, T/C (second compound 0.00949 µM, first compound 0.01 µM): 33.3%; viability, T/C (second compound 0.00949 µM, first compound 0.0316 µM): 30.5%; viability, T/C (second compound 0.00949 µM, first compound 0.1 µM): 28.9%; viability, T/C (second compound 0.03 µM, first compound 0.000316 µM): 35.2%; viability, T/C (second compound 0.03 µM, first compound 0.001 µM): 40%; viability, T/C (second compound 0.03 µM, first compound 0.00316 µM): 36.5%; viability, T/C (second compound 0.03 µM, first compound 0.01 µM): 23.9%; viability, T/C (second compound 0.03 µM, first compound 0.0316 µM): 29.1%; viability, T/C (second compound 0.03 µM, first compound 0.1 µM): 25.6%; viability, T/C (second compound 0.0949 µM, first compound 0.000316 µM): 34.3%; viability, T/C (second compound 0.0949 µM, first compound 0.001 µM): 32%; viability, T/C (second compound 0.0949 µM, first compound 0.00316 µM): 32.6%; viability, T/C (second compound 0.0949 µM, first compound 0.01 µM): 28.6%; viability, T/C (second compound 0.0949 µM, first compound 0.0316 µM): 30.6%; viability, T/C (second compound 0.0949 µM, first compound 0.1 µM): 22.7%; viability, T/C (second compound 0.3 µM, first compound 0.000316 µM): 29.4%; viability, T/C (second compound 0.3 µM, first compound 0.001 µM): 35%; viability, T/C (second compound 0.3 µM, first compound 0.00316 µM): 30.1%; viability, T/C (second compound 0.3 µM, first compound 0.01 µM): 27.5%; viability, T/C (second compound 0.3 µM, first compound 0.0316 µM): 25.9%; viability, T/C (second compound 0.3 µM, first compound 0.1 µM): 23.7%

Source: PubChem BioAssay AID2060891 (Molecular Pharmacology Branch, DTP, NCI, 2025)
